Test [1] deals with T-cell factor (TCF)-luciferase reporter using Wnt pathway as index. As to the kind of experiment: Inhibitory activity against TCF-luciferase reporter using Wnt pathway as index (DLD-1/TCF-Luc cells). In kind it is cell-based, human. The conditions noted are these: for inhibition at 1 µM: Homo sapiens, read-out: Inhibition ratio (%) at 1 μmol/L. Summed up: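 Human colorectal DLD-1 cells stably carrying a TCF-responsive luciferase reporter (pGL4.27) were exposed to test compound for 18 h at 37 °C. Luciferase luminescence read; % inhibition calculated relative to control and blank wells, reported at 1 μmol/L.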
A general note: In a reporter assay the amount or activity of a reporter protein is the signal.

A further test addresses T1, tankyrase-2 (Homo sapiens, UniProt Q9H2K2).
T1 construct: purchased BPS Bioscience, Inc. 80566
T1 sequence (Q9H2K2 1-1166): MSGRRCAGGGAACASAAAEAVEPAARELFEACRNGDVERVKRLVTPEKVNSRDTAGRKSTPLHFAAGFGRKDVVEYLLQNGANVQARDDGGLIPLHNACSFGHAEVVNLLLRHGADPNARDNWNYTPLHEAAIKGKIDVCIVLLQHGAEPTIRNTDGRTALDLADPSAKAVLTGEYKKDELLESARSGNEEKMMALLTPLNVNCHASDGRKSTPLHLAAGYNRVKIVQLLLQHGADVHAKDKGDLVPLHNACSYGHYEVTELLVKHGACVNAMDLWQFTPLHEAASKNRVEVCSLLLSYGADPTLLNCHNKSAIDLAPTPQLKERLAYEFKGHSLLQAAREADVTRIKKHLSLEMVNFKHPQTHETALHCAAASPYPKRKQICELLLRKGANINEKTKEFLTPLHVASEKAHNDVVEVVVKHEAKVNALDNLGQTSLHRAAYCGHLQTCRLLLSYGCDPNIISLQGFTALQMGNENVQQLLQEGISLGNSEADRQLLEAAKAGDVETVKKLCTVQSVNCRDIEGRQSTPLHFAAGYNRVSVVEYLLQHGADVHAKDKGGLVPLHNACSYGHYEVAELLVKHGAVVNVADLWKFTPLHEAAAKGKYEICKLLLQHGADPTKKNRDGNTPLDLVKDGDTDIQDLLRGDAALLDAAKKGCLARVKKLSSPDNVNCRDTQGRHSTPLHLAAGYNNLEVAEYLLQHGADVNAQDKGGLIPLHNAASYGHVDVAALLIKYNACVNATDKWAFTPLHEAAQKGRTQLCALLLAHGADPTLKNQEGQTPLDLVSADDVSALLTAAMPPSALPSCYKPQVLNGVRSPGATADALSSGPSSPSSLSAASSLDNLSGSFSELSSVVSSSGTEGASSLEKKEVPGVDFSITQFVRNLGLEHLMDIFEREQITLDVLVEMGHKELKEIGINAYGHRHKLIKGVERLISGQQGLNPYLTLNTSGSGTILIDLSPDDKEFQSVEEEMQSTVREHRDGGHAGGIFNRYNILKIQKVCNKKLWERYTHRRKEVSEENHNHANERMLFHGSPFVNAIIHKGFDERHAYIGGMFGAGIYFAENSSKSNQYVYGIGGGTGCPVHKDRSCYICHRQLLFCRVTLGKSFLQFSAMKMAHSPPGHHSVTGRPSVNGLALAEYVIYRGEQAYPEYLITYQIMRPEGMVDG
Kind of test: Tankyrase-2 enzyme inhibition test (Tankyrase-2 Chemiluminescent Assay Kit). In kind it is biochemical. The conditions noted are these: autoribosylation of GST-tankyrase-2 fusion protein, chemiluminescence. Here is the method:
Test Example 2: Tankyrase-2 Enzyme Inhibition Test
The enzyme activity of tankyrase-2 was evaluated using Tankyrase-2 Chemiluminescent Assay Kit (BPS Bioscience, Inc., Catalog No. 80566). The Tankyrase-2 Chemiluminescent Assay Kit is a kit for evaluating the enzyme activity of tankyrase-2 using autoribosylation of glutathione-S-transferase (GST)-tankyrase-2 fusion protein as an index. All the experimental materials except for PBS (PBST) buffer containing phosphate-buffered saline (PBS) and 0.05% Tween 20 are all included in the kit. The GST-tankyrase-2 enzyme diluted with 50 μL of 1× tankyrase buffer was added to the wells of a 96-well plate coated with glutathione. After the plate was left to stand overnight at 4° C., the plate was washed 3 times with the PBST buffer. 150 μL of blocking buffer was added thereto, and the plate was left to stand at room temperature for 30 minutes to block the wells. The plate was washed 3 times with the PBST buffer. Before the ribosylation reaction, an assay mixture containing a biotinylated substrate and a test compound diluted with 1× tankyrase buffer were mixed, whereby a reaction mixture was prepared. In order to start the ribosylation reaction, 50 μL of the reaction mixture was added to the wells. In a blank well, 1× tankyrase buffer was added in place of the reaction mixture containing a biotinylated substrate. The plate was left to stand at 30° C. for 1 hour. After the reaction, the plate was washed 3 times with the PBST buffer. Streptavidin-horseradish peroxidase (HRP) was diluted to 50-fold with the blocking buffer. The diluted streptavidin-HRP was added to the wells, and the plate was left to stand at room temperature for 30 minutes. The plate was washed 3 times with the PBST buffer. Immediately before use, 50 μL of the HRP chemiluminescent substrate A and 50 μL of the HRP chemiluminescent substrate B were mixed and 100 μL of the resulting mixture was added to the wells. The chemiluminescence was measured using a chemiluminescence measuring apparatus. The inhibition ratio was obtained according to the following formula 2. [Math. 2] Inhibition ratio (%)=100−{(chemiluminescence intensity when test compound was added)−(chemiluminescence intensity of blank)}/{(chemiluminescence intensity of control)−(chemiluminescence intensity of blank)}×100 Formula 2

[2] abbreviates: 1 μmol/L, DLD-1/TCF-Luc cells, luciferase activity after 18 hours.

This is an account of results in patent publication US9771351B2, “Wnt signaling inhibitor” (KYOWA HAKKO KIRIN CO., LTD., priority 2013, dated 2017).

Like-named read-outs stand apart in the source and are kept apart here.

On to `COc1cc2ncnc(N3CCC(CN4Cc5nccnc5N(c5ccnc(C#N)c5)C4=O)CC3)c2cc1OC` [Compound 24, 4-(3-{[1-(6,7-Dimethoxyquinazolin-4-yl)piperidin-4-yl]methyl}-2-oxo-3,4-dihydropteridin-1(2H)-yl)picolinonitrile], for which the inhibition at 1 µM in test [1] (setting [2]) came to 86%. In addition, the “Inhibition ratio (%) at 1 μmol/L” value at tankyrase-2 was determined as 92%.
`N#Cc1cccc(N2C(=O)N(CC3CCN(c4ncnc5cc(C(=O)O)ccc45)CC3)Cc3ccccc32)c1` [Compound 25, 4-(4-{[1-(3-Cyanophenyl)-2-oxo-1,2-dihydroquinazolin-3(4H)-yl]methyl}piperidin-1-yl)quinazoline-7-carboxylic acid]: the inhibition at 1 µM in test [1] (DLD-1, 18 h) amounted to 86%. Moreover, the “Inhibition ratio (%) at 1 μmol/L” value at tankyrase-2 is 81%.
In the same order, the values of `N#Cc1cccc(N2C(=O)N(CC3CCN(c4ncnc5c[n+]([O-])ccc45)CC3)Cc3ccccc32)c1` [Compound 29, 4-(4-{[1-(3-Cyanophenyl)-2-oxo-1,2-dihydroquinazolin-3(4H)-yl]methyl}piperidin-1-yl)pyrido[3,4-d]pyrimidine-7-oxide] are 74% and 87%.
In the same order, the values of `N#Cc1cc(N2C(=O)N(CC3CCN(c4nccn5ccnc45)CC3)Cc3ccccc32)ccn1` [Compound 30, 4-(3-{[1-(Imidazo[1,2-a]pyrazin-8-yl)piperidin-4-yl]methyl}-2-oxo-3,4-dihydroquinazolin-1(2H)-yl)picolinonitrile] are 69% and 92%.
As to `COc1cncnc1N1CCC(CN2Cc3ccccc3N(c3ccnc(C#N)c3)C2=O)CC1` [Compound 32, 4-(3-{[1-(5-Methoxypyrimidin-4-yl)piperidin-4-yl]methyl}-2-oxo-3,4-dihydroquinazolin-1(2H)-yl)picolinonitrile], in test [1] (DLD-1, 18 h), the inhibition at 1 µM is 76%. The “Inhibition ratio (%) at 1 μmol/L” value at tankyrase-2 was 94%.
In the same order, the values of `N#Cc1cc(N2C(=O)N(CC3CCN(c4nccc5nc[nH]c(=O)c45)CC3)Cc3ccccc32)ccn1` [Compound 34, 4-(2-Oxo-3-{[1-(4-oxo-3,4-dihydropyrido[4,3-d]pyrimidin-5-yl)piperidin-4-yl]methyl}-3,4-dihydroquinazolin-1(2H)-yl)picolinonitrile] are 78% and 87%.
In the same order, the values of `N#Cc1cc(N2C(=O)N(CC3CCN(c4ncnc5c4NC(=O)CO5)CC3)Cc3ccccc32)ccn1` [Compound 35, 4-(2-Oxo-3-{[1-(6-oxo-6,7-dihydro-5H-pyrimido[4,5-b][1,4]oxazin-4-yl)piperidin-4-yl]methyl}-3,4-dihydroquinazolin-1(2H)-yl)picolinonitrile] are 79% and 88%.
As to `N#Cc1cc(N2C(=O)N(CC3CCN(c4ncnc5[nH]c(=O)[nH]c45)CC3)Cc3ccccc32)ccn1` [Compound 36, 4-(2-Oxo-1-{[1-(8-oxo-8,9-dihydro-7H-purin-6-yl)piperidin-4-yl]methyl}-3,4-dihydroquinazolin-1(2H)-yl)picolinonitrile], the figures for the “Inhibition ratio (%) at 1 μmol/L” value (in test [1] (setting [2]); on tankyrase-2) were 79% and 88%, respectively.
For `N#Cc1cc(N2C(=O)N(CC3CCN(c4ncnc5cc(N6CCOCC6)ccc45)CC3)Cc3ccccc32)ccn1` [Compound 37, 4-(3-{[1-(7-Morpholinoquinazolin-4-yl)piperidin-4-yl]methyl}-2-oxo-3,4-dihydroquinazolin-1(2H)-yl)picolinonitrile], the inhibition at 1 µM in test [1] (DLD-1, 18 h) was found to be 82%. The “Inhibition ratio (%) at 1 μmol/L” value on tankyrase-2 came out at 87%.
Taken in the same sequence, the figures for `N#Cc1cc(N2C(=O)N(CC3CCN(c4cccc5n[nH]c(=O)n45)CC3)Cc3ccccc32)ccn1` [Compound 38, 4-(2-Oxo-3-{[1-(3-oxo-2,3-dihydro-[1,2,4]triazolo[4,3-a]pyridin-5-yl)piperidin-4-yl]methyl}-3,4-dihydroquinazolin-1(2H)-yl)picolinonitrile] were 89% and 94%.
Taken in the same sequence, the figures for `N#Cc1cc(N2C(=O)N(CC3CCN(c4c(C(N)=O)ccnc4F)CC3)Cc3ccccc32)ccn1` [Compound 40, 3-(4-{[1-(2-Cyanopyridin-4-yl)-2-oxo-1,2-dihydroquinazolin-3(4H)-yl]methyl}piperidin-1-yl)-2-fluoroisonicotinamide] were 78% and 93%.
In the same order, the values of `N#Cc1cc(N2C(=O)N(CC3CCN(c4ncnc5cc(N)cnc45)CC3)Cc3ccccc32)ccn1` [Compound 41, 4-(3-{[1-(7-Aminopyrido[3,2-d]pyrimidin-4-yl)piperidin-4-yl]methyl}-2-oxo-3,4-dihydroquinazolin-1(2H)-yl)picolinonitrile] are 81% and 92%.
Take `CC(=O)N1CCc2ncnc(N3CCC(CN4Cc5ccccc5N(c5ccc(F)c(C#N)c5)C4=O)CC3)c2C1` [Compound 44, 5-(3-{[1-(6-Acetyl-5,6,7,8-tetrahydropyrido[4,3-d]pyrimidin-4-yl)piperidin-4-yl]methyl}-2-oxo-3,4-dihydroquinazolin-1(2H)-yl)-2-fluorobenzonitrile]: the inhibition at 1 µM in test [1] (DLD-1, 18 h) was found to be 82%. In addition, the “Inhibition ratio (%) at 1 μmol/L” value on tankyrase-2 worked out at 93%.
On to `N#Cc1cc(N2C(=O)N(CC3CCN(c4nccc5nc[nH]c(=O)c45)CC3)Cc3cccnc32)ccc1F` [Compound 47, 2-Fluoro-5-(2-oxo-3-{[1-(4-oxo-3,4-dihydropyrido[4,3-d]pyrimidin-5-yl)piperidin-4-yl]methyl}-3,4-dihydropyrido[2,3-d]pyrimidin-1(2H)-yl)benzonitrile], for which the inhibition at 1 µM in test [1] (setting [2]) turned out to be 82%. Besides, the “Inhibition ratio (%) at 1 μmol/L” value on tankyrase-2 was found to be 80%.
In the same order, the values of `COc1ccc2c(c1)CN(CC1CCN(c3nccc4nc[nH]c(=O)c34)CC1)C(=O)N2c1ccnc(C(N)=O)c1` [Compound 48, 4-(6-Methoxy-2-oxo-3-{[1-(4-oxo-3,4-dihydropyrido[4,3-d]pyrimidin-5-yl)piperidin-4-yl]methyl}-3,4-dihydroquinazolin-1(2H)-yl)picolinamide] are 84% and 93%.
Taken in the same sequence, the figures for `CC(=O)Nc1ccc2ncnc(N3CCC(CN4Cc5cccnc5N(c5ccnc(C#N)c5)C4=O)CC3)c2c1` [Compound 50, N-[4-(4-{[1-(2-Cyanopyridin-4-yl)-2-oxo-1,2-dihydropyrido[2,3-d]pyrimidin-3(4H)-yl]methyl}piperidin-1-yl)quinazolin-6-yl]acetamide] were 87% and 82%.
